# From patent publication US20240307339A1, “NOVEL COMPOUNDS FOR THE TREATMENT AND PREVENTION OF NEUROLOGICAL COMPLICATIONS OF VIRAL INFECTIONS” (Sunregen Healthcare AG, priority 2021, published 2024)
# Columns and labels:
# [1] = system: YHB1 (yeast homologue of neuroglobin) mRNA; assay: RNAseq of yeast cells treated with tripentadecanoin; format: cell-based, Saccharomyces cerevisiae
# Procedure: (§1) Potential targets of the compound of formula (I) were identified by using RNAseq. The yeast cells (Saccharomyces cerevisiae) were treated with tripentadecanoin (30 μM) for 5 hours and the mRNA abundance of all genes in cells that were treated with the compound or vehicle only for 5 hours was quantitatively monitored. Samples in triplicate were processed by the company Genewiz. […] Among these hits is Yhb1, a flavohemoglobin that plays a role in nitrosative stress response (FIG. 4A). Following the results from the RNAseq survey, PH084, YHB1 or VTC4 were knocked out and the proportion of old cells with an Hsp104-GFP focus was measured, as before. While pho84Δ cells were similar to wild type cells, much more vtc4Δ and yhb1Δ mutant cells contained an age-induced deposit (FIG. 4A).
# [2] = system: Hsp104-GFP age-induced protein deposit; assay: Hsp104-GFP age-induced protein deposit in old yeast cells (replicative ageing); format: cell-based, Saccharomyces cerevisiae; settings: for proportion of cells with an Hsp104-GFP focus / proportion of cells with an Hsp104-GFP focus decreased: 30 μM
# From the text: While yeast populations can be propagated ad libitum, the yeast mother cell has a finite lifespan and can only produce a certain amount of daughter cells, typically 25 for laboratory backgrounds. Mortality rate increases with the number of daughter cells produced, therefore this phenomenon is termed replicative ageing. In old yeast cells, age-induced protein deposits recruit a specific set of chaperones and co-chaperones.
# Hsp104 expressed endogenously as a fusion to the green fluorescent protein tag (Hsp104-GFP) forms a focus in old cells. The presence (percentage of cells with an aggregate at a certain age), number (number of foci per cell) and size (fluorescent brightness) can be assessed on hundreds of cells and thus, this gives a good model for assessing the biology of age induced aggregates.
# To test if tripentadecanoin is active in yeast, cells were treated with different concentrations of the purified compound (1 μM, 10 μM and 30 μM) as well as an extract (10 μg/ml) of the plant it is derived from (Ophioglossum thermale). These cells were let to age in the presence of the compound and after 10-11 generations, cells were imaged to count their age and assess whether they contained a Hsp104-GFP age-induced protein deposit or not (FIG. 3A).
# as §1
# [3] = system: NMU-induced photoreceptor degeneration (retina); assay: murine model of N-nitroso-N-methylurea (NMU) photoreceptor degeneration; format: in vivo, C57BL/6J mice; settings: for outer nuclear layer (ONL) area under the curve (AUC -1.75 to +1.75 μm): H&E histology; for number of rows of photoreceptor nuclei: mid-peripheral region
# Procedure: Eighteen 8-12-week-old female C57BL/6J mice were randomized into three groups: 1) NMU+vehicle; 2) NMU+Tripentadecanoin 20 mg/kg; 3) NMU+Tripentadecanoin 50 mg/kg. NMU at a dose of 50 mg/kg was injected i.p. to all mice; Tripentadecanoin (or vehicle) was administered daily via oral gavage starting 3 days before NMU and continuing until 7 days after NMU challenge. Retina were imaged by spectral domain optical coherence tomography (OCT) 5 days before exposing to NMU and 7 days after NMU. All eyes were collected and processed for histological hematoxylin and eosin (H&E) staining. The thicknesses of photoreceptors were measured from different locations on OCT images and H&E slides, respectively. Photoreceptor thickness on H&E slides were quantified using automated Leica software (Leica, Heerbrugg), operated by a single masked observer. Results were expressed as the outer nuclear layer (ONL) area under the curve (AUC −1.75 to +1.75 μm) and number of rows of photoreceptor nuclei.
# [4] = system: Mouse hepatitis virus (MHV); assay: mouse model of coronavirus infection (MHV infected mice); format: in vivo, C57BL/6J male mice; settings: vs vehicle; for clinical score / clinical severity of virus induced neuropathology: 50 mg/kg, treatment started 3 days after virus infection till Day 21, P<0.05 on days 9, 10 or 14
# Procedure: Tripentadecanoin was tested in a mouse model of coronavirus infection. The objective of this study was to investigate tripentadecanoin's therapeutic effects in MHV infected mice. Mouse hepatitis virus (MHV) causes acute infections of the murine liver and lungs and persistent infections of the gastrointestinal tract and central nervous system (CNS). […] This virus was named JHM virus (JHMV) and subsequently shown to be a coronavirus, related to other MHV strains (Bergmann, C., Lane, T. & Stohlman, S. Coronavirus infection of the central nervous system: host-virus stand-off. Nat Rev Microbiol 2006; 4:121-132.). JMHV is now broadly used to study virus-induced neurological diseases, particularly demyelination. It is considered to be a suitable model for coronavirus-induced neurological complication. CNS infection with MHV provides an animal model for acute viral-induced encephalomyelitis and the human demyelinating disease, multiple sclerosis. MHV-induced demyelinating disease is typified by mice, which control viral replication, but fail to fully clear virus. Acute infection induces CNS inflammation and initiates the demyelinating process. Animals that fail to control virus replication in a sufficiently rapid manner succumb to encephalomyelitis within 5-10 days. Survivors of acute infection typically eliminate infectious virus within two weeks. However, these animals still fail to achieve sterile immunity as evidenced by the persisting viral antigen (Ag) and RNA within the CNS. MHV persistence is associated with chronic CNS inflammation and ongoing primary demyelination.
# 20 C57BL/6J male mice of at 5 weeks of age were randomized into 2 groups of vehicle control or tripentadecanoin 50 mg/kg. Tripentadecanoin or vehicle control treatment was started 3 days after virus infection for a total of 19 days till Day 21. Clinical score of MHV infected mice was rated as: 0—asymptomatic; 1—limp tail; 2—wobbly gait with righting difficulty; 3—hind limb weakness and extreme righting difficulty; 4—hind limb paralysis; 5—moribund.
# neuroglobin mRNA = assay: Expression of neuroglobin in mouse primary cortical neurons (qPCR); format: cell-based, C57BL/6J mouse
# Procedure: Healthy neurons preparation: primary mouse cortical neurons from embryonic day 16-17 were prepared from C57BL/6J mouse foetuses, resulting in 95-97% of neurons and 3-5% astrocytes. At DIV 5/6, mouse primary cortical neurons was treated for 3 h (T3) or 24 h (T24) with vehicle (ethanol) or increasing concentrations of tripentadecanoin (100 or 1000 nM). q PCRmethods used to amplify the mRNA of neuroglobin.
# The amount and quality of RNA were evaluated using capillary electrophoresis. The complementary DNA (cDNA) was synthesized by reverse transcription of total RNA in presence of oligo(dT) and “Transcriptor reverse transcriptase” from Roche. The cDNA quantities were then adjusted before the PCRstep. The qPCRreactions were performed using the Licht Cycler system from Roche according to supplier instructions. In this experiment, Rps28 (Ribosomal protein S28) was used as a reference marker (also referred to as housekeeping gene).
# The reaction mix (10 μL final) was prepared as follows: • 2.5 μL cDNA • Primers and TaqMan probe • Reagent mix containing taq DNA polymerase and MgCl2.
# The following primers were used in this experiment: […]
smiles,measurement,setting,value
CCCCCCCCCCCCCCC(=O)OCC(COC(=O)CCCCCCCCCCCCCC)OC(=O)CCCCCCCCCCCCCC [tripentadecanoin],mRNAs significantly differentially expressed vs vehicle,"[1]; 30 μM, 5 hours, RNAseq, triplicate",157
same,expression of YHB1,[1]; yeast cells treated with tripentadecanoin,significantly increased
same,cells containing a Hsp104-GFP age-induced protein deposit (focus),"[2]; 1 μM, 10 μM and 30 μM, after 10-11 generations, vs vehicle 0.3% ethanol",less likely to harbor a Hsp104-GFP focus
same,proportion of cells with an Hsp104-GFP focus,[2]; pho84Δ cells,decreased
same,proportion of cells with an Hsp104-GFP focus decreased,[2]; vtc4Δ mutant cells,this was not the case
same,proportion of cells with an Hsp104-GFP focus,[2]; wild type cells,decreased
same,aggregation of HSP-104 (GFP-HSP104 loci),"[2]; yeast cells, summary statement",greatly reduced
same,proportion of cells with an Hsp104-GFP focus decreased,[2]; yhb1Δ mutant cells,this was not the case
same,outer nuclear layer (ONL) area under the curve (AUC -1.75 to +1.75 μm),"[3]; 20 mg/kg daily oral gavage, p<0.01 vs vehicle",73.58±14.45
same,number of rows of photoreceptor nuclei,"[3]; 20 mg/kg, p<0.01 vs vehicle",6.4±1.2
same,outer nuclear layer (ONL) area under the curve (AUC -1.75 to +1.75 μm),"[3]; 50 mg/kg daily oral gavage, p<0.001 vs vehicle",83.08±19.05
same,number of rows of photoreceptor nuclei,"[3]; 50 mg/kg, p<0.001 vs vehicle",7.0±1.7
same,neuroretinal thickness (OCT),"[3]; 50 mg/kg, peripheral (p<0.05), mid-peripheral (p<0.05) and central retina (p<0.01) vs vehicle",significantly increased
same,thickness of photoreceptor layers (in vivo OCT images),"[3]; OCT 7 days after NMU, vs control",increased thickness of photoreceptor layers
same,clinical score / clinical severity of virus induced neuropathology,[4],reducing the clinical severity of virus induced neuropathology
same,clinical score / clinical severity of virus induced neuropathology,[4]; listed as compound of the formula (I),improved clinical score
same,weight loss of animals,[4]; mouse model of coronavirus infection,reduced weight loss of animals
same,expression of neuroglobin vs vehicle control,"neuroglobin mRNA; 1000 nM, 3 hours, p<0.001",significant increased expression of neuroglobin
same,increase in the expression level of neuroglobin,"neuroglobin mRNA; mouse neurons, Example 4",approximately six-fold
